Our source for the Emax and IC50 values is patent publication US20260091026A1, “METHODS OF TREATING INFLAMMATORY DISEASES” (INTERLINE THERAPEUTICS, INC., priority 2023, published 2026).

Molecules are shown by their SMILES.

For one test, the target named is T1, RIPK2 (KD)/XIAP (BIR2) (Homo sapiens, UniProt O43353).
T1 construct: made in house; host or cells: baculovirus-infected Sf9 cells
Description: RIPK2-XIAP binding competition PPI assay (TR-FRET). The following applies: for Emax: 50 nM of GSK583 = -100% activity, read-out: PPI Amax; for IC50: GST-RIPK2 / His-XIAP (BIR2)-avi, 120 min at 23° C. In a few lines: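 TR-FRET competition between GST-RIPK2 (aa 1-310, 1 nM) and His-XIAP BIR2-avi (aa 152-231, 25 nM), both Sf9-expressed, detected with anti-His-XL665 and anti-GST-Tb in Tris pH 7.5 buffer with MgCl2, DTT and vanadate. Incubation was 120 min at 23 °C; the 665/520 nm ratio was normalized to no inhibitor (0%) and 50 nM GSK583 (−100%).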
A general note: TR-FRET usually uses a lanthanide donor and a delayed reading to cut background.

In test [1] the test system is THP1-Dual cells, NF-κB pathway (SEAP). Nature of the test: THP-1 Dual cell SEAP assay (L18-MDP stimulated). The following applies: Homo sapiens, 10 ng/mL L18-MDP, 20-24 h, SEAP readout, read-out: IFNγ THP1 IC50. The test is classed as cell-based. In a few lines: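 About 25,000 THP1-Dual cells per well were preincubated 30 min with serially diluted compound, then stimulated overnight (20-24 h, 37 °C) with 10 ng/mL L18-MDP (final). NF-κB-driven SEAP in supernatant was read with QUANTI-Blue at OD 620-655 nm after 2 h; % inhibition versus DMSO/L18-MDP wells was fitted by non-linear regression to give IC50.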

T1 sequence (O43353 1-310): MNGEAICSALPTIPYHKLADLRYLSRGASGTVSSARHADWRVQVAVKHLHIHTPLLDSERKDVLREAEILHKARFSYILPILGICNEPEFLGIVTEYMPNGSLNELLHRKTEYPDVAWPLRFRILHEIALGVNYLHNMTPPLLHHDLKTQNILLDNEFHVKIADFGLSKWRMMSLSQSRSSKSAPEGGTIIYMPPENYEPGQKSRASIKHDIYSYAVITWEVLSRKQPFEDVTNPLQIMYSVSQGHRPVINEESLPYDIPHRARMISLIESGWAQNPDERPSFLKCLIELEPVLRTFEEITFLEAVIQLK

Turning to `COc1cc2ncc(-c3cc(C(=O)N[C@H](C)c4ncccn4)n(C)n3)n2cc1S(=O)(=O)C(C)(C)C` [Example 103, (R)-3-(6-(tert-butylsulfonyl)-7-methoxyimidazo[1,2-a]pyridin-3-yl)-1-methyl-N-(1-(pyrimidin-2-yl)ethyl)-1H-pyrazole-5-carboxamide], on RIPK2 (KD)/XIAP (BIR2), the Emax was at least 80%. Further, the values for the IC50 (at RIPK2 (KD)/XIAP (BIR2); in test [1]) were 10 to 100 nM and 100 to 500 nM, respectively.

With `COc1cc2ncc(-c3cc(C(=O)N[C@H](C)c4ncc(F)cn4)n(C)n3)n2cc1S(=O)(=O)C(C)(C)C` [Example 104, (R)-3-(6-(tert-butylsulfonyl)-7-methoxyimidazo[1,2-a]pyridin-3-yl)-N-(1-(5-fluoropyrimidin-2-yl)ethyl)-1-methyl-1H-pyrazole-5-carboxamide], at RIPK2 (KD)/XIAP (BIR2), the Emax was at least 80% and the concentration for half-maximal inhibition (IC50) is over 1000 nM. Also, in test [1], the IC50 was over 2500 nM.

For the molecule `COCCn1nc(-c2cnc3cc(OC)c(S(=O)(=O)C(C)(C)C)cn23)cc1C(=O)N[C@H](C)c1ccccn1` [Example 105, (R)-3-(6-(tert-butylsulfonyl)-7-methoxyimidazo[1,2-a]pyridin-3-yl)-1-(2-methoxyethyl)-N-(1-(pyridin-2-yl)ethyl)-1H-pyrazole-5-carboxamide], at RIPK2 (KD)/XIAP (BIR2), the Emax is at least 80% and the half-inhibitory concentration (IC50) was 10 to 100 nM. Further, the concentration for half-maximal inhibition (IC50) in test [1] was 500 to 2500 nM.

Consider `COc1cc2ncc(-c3cc(C(=O)N[C@H](C)c4ccccn4)n(CC(F)(F)CO)n3)n2cc1S(=O)(=O)C(C)(C)C` [Example 106, (R)-3-(6-(tert-butylsulfonyl)-7-methoxyimidazo[1,2-a]pyridin-3-yl)-1-(2,2-difluoro-3-hydroxypropyl)-N-(1-(pyridin-2-yl)ethyl)-1H-pyrazole-5-carboxamide], for which, on RIPK2 (KD)/XIAP (BIR2), the Emax was at least 80% and the 50% inhibitory concentration (IC50) was 10 to 100 nM. In test [1], the concentration for half-maximal inhibition (IC50) fell in the range of 100 to 500 nM.

Regarding `COc1cc2ncc(-c3cc(C(=O)N[C@H](C)c4ncccn4)n(CC(F)(F)CO)n3)n2cc1S(=O)(=O)C(C)(C)C` [Example 107, (R)-3-(6-(tert-butylsulfonyl)-7-methoxyimidazo[1,2-a]pyridin-3-yl)-1-(2,2-difluoro-3-hydroxypropyl)-N-(1-(pyrimidin-2-yl)ethyl)-1H-pyrazole-5-carboxamide], on RIPK2 (KD)/XIAP (BIR2), the Emax was at least 80% and the IC50 lay within 10 to 100 nM. Further, the 50% inhibitory concentration (IC50) in test [1] lay in the range of 500 to 2500 nM.

Turning to `C[C@@H](NC(=O)c1cc(-c2cnc3cc(OCCO)c(S(=O)(=O)C(C)(C)C)cn23)nn1C)c1ncccn1` [Example 108, (R)-3-(6-(tert-butylsulfonyl)-7-(2-hydroxyethoxy)imidazo[1,2-a]pyridin-3-yl)-1-methyl-N-(1-(pyrimidin-2-yl)ethyl)-1H-pyrazole-5-carboxamide], on RIPK2 (KD)/XIAP (BIR2), the Emax was at least 80% and the half-inhibitory concentration (IC50) was 10 to 100 nM. In addition, the IC50 in test [1] lay within 100 to 500 nM.

Turning to `C[C@@H](NC(=O)c1cc(-c2cnc3cc(OCCO)c(S(=O)(=O)C(C)(C)C)cn23)nn1C)c1ccccn1` [Example 109, (R)-3-(6-(tert-butylsulfonyl)-7-(2-hydroxyethoxy)imidazo[1,2-a]pyridin-3-yl)-1-methyl-N-(1-(pyridin-2-yl)ethyl)-1H-pyrazole-5-carboxamide], on RIPK2 (KD)/XIAP (BIR2), the Emax is at least 80% and the concentration for half-maximal inhibition (IC50) lay within 10 to 100 nM. Also, the half-maximal inhibitory concentration (IC50) in test [1] fell in the range of 100 to 500 nM.

For `C[C@@H](NC(=O)c1cc(-c2cnc3cc(OCCO)c(S(=O)(=O)C(C)(C)C)cn23)nn1C)c1ncccc1F` [Example 110, (R)-3-(6-(tert-butylsulfonyl)-7-(2-hydroxyethoxy)imidazo[1,2-a]pyridin-3-yl)-N-(1-(3-fluoropyridin-2-yl)ethyl)-1-methyl-1H-pyrazole-5-carboxamide], at RIPK2 (KD)/XIAP (BIR2), the Emax is at least 80% and the IC50 was in the range of 10 to 100 nM. In test [1], the IC50 is under 100 nM.

In the case of `C[C@@H](NC(=O)c1cc(-c2cnc3cc(OCCO)c(S(=O)(=O)C(C)(C)C)cn23)nn1C)c1ncccc1Cl` [Example 111, (R)-3-(6-(tert-butylsulfonyl)-7-(2-hydroxyethoxy)imidazo[1,2-a]pyridin-3-yl)-N-(1-(3-chloropyridin-2-yl)ethyl)-1-methyl-1H-pyrazole-5-carboxamide], the Emax at RIPK2 (KD)/XIAP (BIR2) is at least 80%. The IC50 at RIPK2 (KD)/XIAP (BIR2) was in the range of 10 to 100 nM; in test [1] it was 100 to 500 nM.

For `C[C@H](NC(=O)c1cc(-c2cnc3cc(OCCO)c(S(=O)(=O)C(C)(C)C)cn23)nn1C)c1ncccc1Cl` [Example 112, (S)-3-(6-(tert-butylsulfonyl)-7-(2-hydroxyethoxy)imidazo[1,2-a]pyridin-3-yl)-N-(1-(3-chloropyridin-2-yl)ethyl)-1-methyl-1H-pyrazole-5-carboxamide], at RIPK2 (KD)/XIAP (BIR2), the Emax lay in the range of 55 to 80% and the half-maximal inhibitory concentration (IC50) is over 1000 nM. For the same molecule, the IC50 in test [1] was over 2500 nM.

For `COc1cn2ncc(-c3cc(C(=O)N[C@H](C)c4ccccn4)n(C)n3)c2cc1S(=O)(=O)C(C)(C)C` [Example 113, (R)-3-(5-(tert-butylsulfonyl)-6-methoxypyrazolo[1,5-a]pyridin-3-yl)-1-methyl-N-(1-(pyridin-2-yl)ethyl)-1H-pyrazole-5-carboxamide], at RIPK2 (KD)/XIAP (BIR2), the Emax is at least 80% and the half-inhibitory concentration (IC50) fell in the range of 100 to 1000 nM. Further, in test [1], the IC50 lay in the range of 500 to 2500 nM.

Consider `COc1cn2ncc(-c3cc(C(=O)N[C@H](C)c4ncccc4F)n(C)n3)c2cc1S(=O)(=O)C(C)(C)C` [Example 114, (R)-3-(5-(tert-butylsulfonyl)-6-methoxypyrazolo[1,5-a]pyridin-3-yl)-N-(1-(3-fluoropyridin-2-yl)ethyl)-1-methyl-1H-pyrazole-5-carboxamide], for which, at RIPK2 (KD)/XIAP (BIR2), the Emax is at least 80% and the IC50 is 10 to 100 nM. The IC50 in test [1] lay in the range of 100 to 500 nM.

`C[C@@H](NC(=O)c1cc(-c2cnn3cc(OCCO)c(S(=O)(=O)C(C)(C)C)cc23)nn1C)c1ccccn1` [Example 115, (R)-3-(5-(tert-butylsulfonyl)-6-(2-hydroxyethoxy)pyrazolo[1,5-a]pyridin-3-yl)-1-methyl-N-(1-(pyridin-2-yl)ethyl)-1H-pyrazole-5-carboxamide]: at RIPK2 (KD)/XIAP (BIR2), the Emax is at least 80% and the IC50 lay within 10 to 100 nM. In test [1], the 50% inhibitory concentration (IC50) was 500 to 2500 nM.

Regarding `C[C@@H](NC(=O)c1cc(-c2cnn3cc(OCCO)c(S(=O)(=O)C(C)(C)C)cc23)nn1C)c1ncccc1F` [Example 116, (R)-3-(5-(tert-butylsulfonyl)-6-(2-hydroxyethoxy)pyrazolo[1,5-a]pyridin-3-yl)-N-(1-(3-fluoropyridin-2-yl)ethyl)-1-methyl-1H-pyrazole-5-carboxamide], at RIPK2 (KD)/XIAP (BIR2), the Emax was at least 80% and the IC50 was 10 to 100 nM. Further, the IC50 in test [1] lay in the range of 100 to 500 nM.

Turning to `CCn1nc(-c2cnn3cc(OCCO)c(S(=O)(=O)C(C)(C)C)cc23)cc1C(=O)N[C@H](C)c1ncccn1` [Example 117, (R)-3-(5-(tert-butylsulfonyl)-6-(2-hydroxyethoxy)pyrazolo[1,5-a]pyridin-3-yl)-1-ethyl-N-(1-(pyrimidin-2-yl)ethyl)-1H-pyrazole-5-carboxamide], on RIPK2 (KD)/XIAP (BIR2), the Emax was at least 80% and the IC50 lay in the range of 10 to 100 nM. Further, the IC50 in test [1] was under 100 nM.

Regarding `CCn1nc(-c2cnc3cc(OCCO)c(S(=O)(=O)C(C)(C)C)cn23)cc1C(=O)N[C@H](C)c1ncccc1F` [Example 118, (R)-3-(6-(tert-butylsulfonyl)-7-(2-hydroxyethoxy)imidazo[1,2-a]pyridin-3-yl)-1-ethyl-N-(1-(3-fluoropyridin-2-yl)ethyl)-1H-pyrazole-5-carboxamide], on RIPK2 (KD)/XIAP (BIR2), the Emax was at least 80% and the IC50 is under 10 nM. The IC50 in test [1] was under 100 nM.

With `CCn1nc(-c2cnc3cc(OCCO)c(S(=O)(=O)C(C)(C)C)cn23)cc1C(=O)N[C@H](C)c1ncccn1` [Example 119, (R)-3-(6-(tert-butylsulfonyl)-7-(2-hydroxyethoxy)imidazo[1,2-a]pyridin-3-yl)-1-ethyl-N-(1-(pyrimidin-2-yl)ethyl)-1H-pyrazole-5-carboxamide], on RIPK2 (KD)/XIAP (BIR2), the Emax was at least 80% and the IC50 is under 10 nM. Besides, the 50% inhibitory concentration (IC50) in test [1] was under 100 nM.

Turning to `CCn1nc(-c2cnc3cc(OCCO)c(S(=O)(=O)C(C)(C)C)cn23)cc1C(=O)N[C@H](C)c1nccs1` [Example 120, (R)-3-(6-(tert-butylsulfonyl)-7-(2-hydroxyethoxy)imidazo[1,2-a]pyridin-3-yl)-1-ethyl-N-(1-(thiazol-2-yl)ethyl)-1H-pyrazole-5-carboxamide], on RIPK2 (KD)/XIAP (BIR2), the Emax was at least 80% and the half-inhibitory concentration (IC50) is under 10 nM. For the same molecule, the IC50 in test [1] is under 100 nM.

Regarding `CCn1nc(-c2cnc3cc(OCCO)c(S(=O)(=O)C(C)(C)C)cn23)cc1C(=O)N[C@H](C)c1ccccn1` [Example 121, (R)-3-(6-(tert-butylsulfonyl)-7-(2-hydroxyethoxy)imidazo[1,2-a]pyridin-3-yl)-1-ethyl-N-(1-(pyridin-2-yl)ethyl)-1H-pyrazole-5-carboxamide], at RIPK2 (KD)/XIAP (BIR2), the Emax was at least 80% and the IC50 is under 10 nM. For the same molecule, the IC50 in test [1] was under 100 nM.

As for `CCn1nc(-c2cnc3cc(OCCO)c(S(=O)(=O)C(C)(C)C)cn23)cc1C(=O)N[C@H](C)c1ccn(C)n1` [Example 122, (R)-3-(6-(tert-butylsulfonyl)-7-(2-hydroxyethoxy)imidazo[1,2-a]pyridin-3-yl)-1-ethyl-N-(1-(1-methyl-1H-pyrazol-3-yl)ethyl)-1H-pyrazole-5-carboxamide], at RIPK2 (KD)/XIAP (BIR2), the Emax was at least 80% and the IC50 fell in the range of 10 to 100 nM. In addition, the 50% inhibitory concentration (IC50) in test [1] was under 100 nM.

As a reminder, the IC50 is the concentration that gives 50% inhibition.
